EP0535241A1, “NOVEL LEUCINE AMINOPEPTIDASE” (SUNTORY LIMITED, priority 1991, dated 1992)

Molecular target: T1, leucine aminopeptidase of human placenta origin (PLAP), purified from human retroplacental sera, containing SEQ ID NOs: 1, 2, 3 and 4 (Homo sapiens, UniProt Q9UIQ6)
T1 construct: PLAP was purified by fractionating 900 ml of retroplacental sera by ammonium sulfate fractionation; from tissue; host or cells: human retroplacental sera
Experiment: PLAP enzyme assay with L-leucyl-P-nitroanilide as substrate (Lineweaver-Burk plot)
Assay type: biochemical
Protocol: An assay of PLAP was carried out according to a method of Kurauchi et al. (Kurauchi, O. et al. Enzyme, 35, p197-205, 1986) using L-leucyl-P-nitroanilide as a substrate. Namely, a substrate adjusted to 1.6 mM of a final concentration was added to a 20 mM Tris-HCl buffer (pH 7.2) (1.0 ml) in the presence of a 20 mM L-methionine, and the mixture was incubated at 37°C for 10 minutes. After finishing the reaction, 3.0 ml of a 1M acetate buffer (pH 4.2) was added to terminate the reaction, and the amount of released P-nitroanilide was measured by absorption of 405 nm. One unit of the enzyme is defined as an activity of the enzyme that releases 1 µ mole of the P-nitroanilide for one minute.

[1] = purified PLAP, calculated according to Lineweaver-Burk plot, 20 mM Tris-HCl buffer (pH 7.2), 37°C

T1 sequence (Q9UIQ6 155-1025 limits assumed): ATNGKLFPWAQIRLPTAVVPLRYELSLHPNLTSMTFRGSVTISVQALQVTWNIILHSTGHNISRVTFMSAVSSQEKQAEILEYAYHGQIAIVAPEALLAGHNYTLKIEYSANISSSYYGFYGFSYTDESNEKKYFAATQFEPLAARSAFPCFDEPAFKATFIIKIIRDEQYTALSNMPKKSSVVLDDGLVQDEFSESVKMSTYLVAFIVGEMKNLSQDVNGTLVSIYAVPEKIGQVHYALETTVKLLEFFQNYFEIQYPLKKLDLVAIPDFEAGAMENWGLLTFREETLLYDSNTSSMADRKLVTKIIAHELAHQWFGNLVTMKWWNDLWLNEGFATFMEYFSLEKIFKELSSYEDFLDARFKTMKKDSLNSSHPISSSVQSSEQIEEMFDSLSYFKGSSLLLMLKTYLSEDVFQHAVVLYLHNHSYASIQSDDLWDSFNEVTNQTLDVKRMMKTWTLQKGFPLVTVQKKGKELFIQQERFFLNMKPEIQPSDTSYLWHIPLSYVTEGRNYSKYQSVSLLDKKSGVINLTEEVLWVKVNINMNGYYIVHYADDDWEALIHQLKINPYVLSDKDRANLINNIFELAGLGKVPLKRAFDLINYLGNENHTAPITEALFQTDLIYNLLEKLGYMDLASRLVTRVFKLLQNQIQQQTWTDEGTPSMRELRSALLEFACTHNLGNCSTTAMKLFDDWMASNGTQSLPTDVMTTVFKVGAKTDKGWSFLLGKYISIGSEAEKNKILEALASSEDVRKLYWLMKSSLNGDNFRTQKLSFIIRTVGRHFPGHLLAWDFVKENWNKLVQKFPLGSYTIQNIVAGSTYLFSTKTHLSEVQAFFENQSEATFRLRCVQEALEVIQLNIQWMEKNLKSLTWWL

| Km value for degradation of L-Leucyl-P-nitroanilide [1] [mM] | Vmax for degradation of L-Leucyl-P-nitroanilide [1] [µmol/min/g] | SMILES | inhibition of L-leucyl-P-nitroanilide degrading activity by L-methionine (assay carried out in the presence of 20 mM L-methionine, substrate 1.6 mM) |
| --- | --- | --- | --- |
| 4.17 | 108 | CC(C)C[C@H](N)C(=O)Nc1ccc([N+](=O)[O-])cc1 [L-Leucyl-P-nitroanilide] |  |
|  |  | CSCC[C@H](N)C(=O)O [L-methionine] | not inhibited |
